Source: patent US9889093B2, “Application of andrographolide in the preparation of a pharmaceutical for treatment of inflammatory bowel disease, andrographolide enteric targeting micropellet, and method for preparation thereof” (TASLY PHARMACEUTICAL GROUP CO., LTD., priority 2013, dated 2018)
Marks after values point to notes of the source that are not given here.

Key:
Format in all cases: in vivo
[1] = tested on: TNBS-induced UC rats; experiment: TNBS-induced UC rat model, different administration routes; details: for Gross morphological injury score / Ulcer ratio: 5 days
Excerpt: 4 Dose Designing and Grouping • 4.1 Grouping: quarantine-qualified 84 rats were all used for making UC model. The successful rats were randomly divided into 6 groups: the model control group, the positive control group, the andrographolide low-dose intragastric group, the andrographolide high-dose intragastric group, the andrographolide low-dose intracolonical group and the andrographolide high-dose intracolonical group, 14 rats per group. • 4.2 Dose: the same doses were adopted in both intragastric and intracolonical groups. Animals were not treated in the model control group, the positive control group (mesalazine enteric tablet, 420 mg·kg^−1·d^−1), the andrographolide low-dose intragastric group (30 mg·kg^−1·d^−1), the andrographolide high-dose intragastric group (90 mg·kg^−1·d^−1), the andrographolide low-dose intracolonical group (30 mg·kg^−1·d^−1) and the andrographolide high-dose intracolonical group (90 mg·kg^−1·d^−1).
5. Method • 5.1 Method of making UC model: the rats were anesthetized. 2 mm-diameter latex tube was gently inserted into the position about 8 cm inside the body of the rats through anus, and TNBS in 50% ethanol solution (TNBS 125 mg/kg) was injected into intestinal lumen with an injector by one time, 0.5 ml/rat. The tail of the rat was lifted up for 30 s to make the model making agent (i.e., TNBS) fully infiltrate into the intestinal lumen of the rats. • 5.2 Method of administration: the same dose (1 mL/100 g) was adopted in both intragastric and intracolonical administration, once daily for consecutive 5 days. • 5.3 Method for sampling in experiment: 2 hours after the last administration, the rats were killed by cervical vertebra dislocation and abdomen was opened to separate the colon. Along mesenteric side, the intestinal lumen was cut and rinsed with 4° C. normal saline and spread on a plastic plate. • 5.4 Scoring method for colon gross morphological injury was referred to scoring method for mucosal injury (Bjelkengren G, Aronsen K F, Augustsson N E, etc. Radioprotective effect of local administration of lysine vasopressin and triglycyl lysine vasopressin on the rectal mucosa in rats[J]. Acta Oncol, 1995, 34(4):487-92) to record the mucosal injury score: dotted line blooding and small red spots (<1 mm): 1 score, piece blooding and big red spots (=1 mm): 3 score; and erosion and ulcer: 5 score.
Data were expressed as mean+standard deviation (x±S). All numerical variables were analyzed with SPSS13.0 software by one-way ANOVA. T-test analysis was used for inter-group comparison.

[2] = tested on: zebra fish Crohn's disease model; experiment: Zebra fish Crohn's disease model (TNBS), efficacy; details: 48 hours
Protocol: Crohn's disease model (mainly inflammation) was built by using TNBS (2,4,6-trinitrobenzenesulfonic acid), and 30 zebra fishes were randomly divided into each treating group. […] Image analysis software was used to analyze the pictures. Moreover, the intestinal mucosal thickness, intestinal lumen diameter and intestinal lumen area were observed carefully under a microscope and the intestinal lumen diameter and intestinal lumen area were analyzed quantitatively. Therapeutical efficacy of the tested drug in zebra fish Crohn's disease was calculated in accordance with the intestinal lumen area in each group. The calculation formula was presented as follows: Therapeutical efficacy (%)=[1−(the administration group−the blank control group)/(the model group−the blank control group)]×100%
Statistically analyzed results were expressed as mean±SE. Variance analysis was used for comparison among many groups, and Dunnett's T test for comparison between two groups.

[3] = tested on: zebra fish; experiment: Exploration of concentration in zebra fish (toxicity and death); details: 0.1 to 500 μg/mL in fish farm water, 30 zebra fishes per concentration
Protocol: Fish farm water of wild-type AB strain zebra fish Crohn's disease model (1 L reverse osmosis water was added with 200 mg instant sea salt with a conductivity of […], pH value of 6.9˜7.2 and hardness of 53.7˜71.6 mg/L CaCO3) was added with the andrographolide in the concentrations of 0 μg/mL, 0.1 μg/mL, 1 μg/mL, 10 μg/mL, 100 μg/mL and 500 μg/mL. At each concentration, 30 zebra fishes were treated, during which death number of the zebra fishes was counted daily and the dead fishes were removed in time. After treatment, the death number of the zebra fishes in each group was analyzed statistically to draw the optimum concentration-effect curve by using JMP software and calculate MNLC. […] As a result, the following four concentrations were selected for efficacy evaluation in Crohn's disease in this study: 50 μg/mL, 100 μg/mL, 250 μg/mL and 500 μg/mL.

[4] = tested on: zebra fish Crohn's disease model; experiment: Zebra fish Crohn's disease model (TNBS), efficacy; details: for Inflammation regression ratio: based on neutrophil infiltration; for Number of Neutrophil: intestinal tissue, x ± SE, n = 10; for Ratio with the blank control group: neutrophil number
[5] = andrographolide high-dose 90 mg/kg, intracolonical
[6] = andrographolide high-dose 90 mg/kg, intragastric
[7] = andrographolide low-dose 30 mg/kg, intracolonical
[8] = andrographolide low-dose 30 mg/kg, intragastric

## C=C1CC[C@@H]2[C@](C)(CO)[C@H](O)CC[C@@]2(C)[C@@H]1C/C=C1/C(=O)OC[C@H]1O [Andrographolide]
[1]; [5]
  Gross morphological injury score: 1.96 ± 1.09
  Ulcer ratio: 17.21** %
[1]; [6]
  Gross morphological injury score: 3.25 ± 1.98
  Ulcer ratio: 29.21** %
[1]; andrographolide high-dose intragastric and intracolonical groups, 90 mg/kg
  Formless watery stool symptoms, course: totally disappeared on the 4th˜5th days
[1]; [7]
  Gross morphological injury score: 6.53 ± 2.12
  Ulcer ratio: 38.54* %
[1]; [8]
  Gross morphological injury score: 6.71 ± 2.57
  Ulcer ratio: 45.69* %
[2]; andrographolide 50 μg/ml
  Intestinal lumen area reduced by (therapeutical efficacy): 38±12.9%
[2]; andrographolide 100 μg/ml
  Intestinal lumen area reduced by (therapeutical efficacy): 49±8.9%
[2]; andrographolide 250 μg/ml
  Intestinal lumen area reduced by (therapeutical efficacy): 65±14.7%
[3]
  Toxicity and death in zebra fish: no toxicity and death were found
[4]; andrographolide 500 μg/ml, 48 hours
  Intestinal lumen area reduced by (therapeutical efficacy): 65±10.1%
[4]; andrographolide 50 μg/ml
  Inflammation regression ratio: 45 ± 3.7 %
  Number of Neutrophil: 18 ± 0.54
  Ratio with the blank control group: 1.97 ± 0.06
[4]; andrographolide 50 μg/ml, listed as andrographolide
  Inflammation regression ratio: 45±3.74%
[4]; andrographolide 100 μg/ml
  Inflammation regression ratio: 46 ± 3.7 %
  Number of Neutrophil: 17 ± 0.54
  Ratio with the blank control group: 1.96 ± 0.06
[4]; andrographolide 100 μg/ml, listed as andrographolide
  Inflammation regression ratio: 46±3.74%
[4]; andrographolide 250 μg/ml
  Inflammation regression ratio: 63 ± 4.4 %
  Number of Neutrophil: 15 ± 0.64
  Ratio with the blank control group: 1.67 ± 0.07
[4]; andrographolide 250 μg/ml, listed as andrographolide
  Inflammation regression ratio: 63±4.42%
[4]; andrographolide 500 μg/ml
  Inflammation regression ratio: 79 ± 9.0 %
  Number of Neutrophil: 13 ± 1.30
  Ratio with the blank control group: 1.40 ± 0.15
[4]; andrographolide 500 μg/ml, listed as andrographolide
  Inflammation regression ratio: 79±8.98%
